{"source": "PubChem BioAssay AID180", "about": "(DTP/NCI, 2004)", "system": "BDF1 mice, Adenocarcinoma 755 s.c., tumor weight T/C", "experiment": "NCI In Vivo Anticancer Drug Screen. Data for tumor model Adenocarcinoma 755 (subcutaneous) in B6D2F1 (BDF1) mice", "conditions": "endpoint: mean tumor weight, higher = larger tumour", "in_short": "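Compound activity was tested in mice carrying transplanted tumors. Survival or tumor size was measured, and each value is the treated-group measurement divided by that of the vehicle-treated control group (T/C).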", "key": {"[1]": {"conditions": "dose: 14.0 mg/kg/injection, schedule: Q01DX011 (ip), vehicle: carboxymethylcellulose (CMC)"}, "[2]": {"conditions": "dose: 28.0 mg/kg/injection, schedule: Q01DX011 (ip), vehicle: carboxymethylcellulose (CMC)"}, "[3]": {"conditions": "dose: 113.0 mg/kg/injection, schedule: Q01DX011 (ip), vehicle: carboxymethylcellulose (CMC)"}, "[4]": {"conditions": "dose: 225.0 mg/kg/injection, schedule: Q01DX011 (ip), vehicle: carboxymethylcellulose (CMC)"}, "[5]": {"conditions": "dose: 6.25 mg/kg/injection, schedule: Q01DX011 (ip), vehicle: carboxymethylcellulose (CMC)"}, "[6]": {"conditions": "dose: 12.5 mg/kg/injection, schedule: Q01DX011 (ip), vehicle: carboxymethylcellulose (CMC)"}, "[7]": {"conditions": "dose: 16.0 mg/kg/injection, schedule: Q01DX011 (ip), vehicle: carboxymethylcellulose (CMC)"}, "[8]": {"conditions": "dose: 25.0 mg/kg/injection, schedule: Q01DX011 (ip), vehicle: carboxymethylcellulose (CMC)"}, "[9]": {"conditions": "dose: 31.0 mg/kg/injection, schedule: Q01DX011 (ip), vehicle: carboxymethylcellulose (CMC)"}, "[10]": {"conditions": "dose: 50.0 mg/kg/injection, schedule: Q01DX011 (ip), vehicle: carboxymethylcellulose (CMC)"}, "[11]": {"conditions": "dose: 100.0 mg/kg/injection, schedule: Q01DX011 (ip), vehicle: carboxymethylcellulose (CMC)"}, "[12]": {"conditions": "dose: 200.0 mg/kg/injection, schedule: Q01DX011 (ip), vehicle: carboxymethylcellulose (CMC)"}, "[13]": {"conditions": "dose: 25.0 mg/kg/injection, schedule: Q01DX011 (ip), vehicle: saline"}}, "note": "“And” between values parts separate entries of the source, which are not always exact repeats. Equal values may be shown once.", "data": [{"smiles": "Cc1ccc(S(=O)(=O)OCCC(=O)N2CCN(C(=O)CCOS(=O)(=O)c3ccc(C)cc3)CC2)cc1", "values": [{"measurement": "T/C", "setting": "dose: 22.0 mg/kg/injection, schedule: Q01DX011 (ip), vehicle: methylcellulose (MC)", "value": "57 % of control"}, {"measurement": "T/C", "setting": "dose: 43.0 mg/kg/injection, schedule: Q01DX011 (ip), vehicle: methylcellulose (MC)", "value": "47 % of control"}, {"measurement": "T/C", "setting": "dose: 87.0 mg/kg/injection, schedule: Q01DX011 (ip), vehicle: methylcellulose (MC)", "value": "80 % of control"}, {"measurement": "T/C", "setting": "dose: 175.0 mg/kg/injection, schedule: Q01DX011 (ip), vehicle: methylcellulose (MC)", "value": "60 % of control"}]}, {"smiles": "Cc1ccccc1Nc1cc(Cl)nc(N)n1", "values": [{"measurement": "T/C", "setting": "dose: 15.0 mg/kg/injection, schedule: Q01DX011 (ip), vehicle: methylcellulose (MC)", "value": "73 % of control"}, {"measurement": "T/C", "setting": "dose: 31.0 mg/kg/injection, schedule: Q01DX011 (ip), vehicle: methylcellulose (MC)", "value": "85 % of control"}, {"measurement": "T/C", "setting": "dose: 62.0 mg/kg/injection, schedule: Q01DX011 (ip), vehicle: methylcellulose (MC)", "value": "75 % of control"}, {"measurement": "T/C", "setting": "dose: 125.0 mg/kg/injection, schedule: Q01DX011 (ip), vehicle: methylcellulose (MC)", "value": "120 % of control"}, {"measurement": "T/C", "setting": "dose: 250.0 mg/kg/injection, schedule: Q01DX011 (ip), vehicle: methylcellulose (MC)", "value": "93 % of control"}]}, {"smiles": "CSc1nc(Cl)c2cc[nH]c2n1", "values": [{"measurement": "T/C", "setting": "dose: 30.0 mg/kg/injection, schedule: Q01DX011 (ip), vehicle: carboxymethylcellulose (CMC)", "value": "89 % of control"}, {"measurement": "T/C", "setting": "dose: 120.0 mg/kg/injection, schedule: Q01DX011 (ip), vehicle: carboxymethylcellulose (CMC)", "value": "72 % of control"}, {"measurement": "T/C", "setting": "dose: 240.0 mg/kg/injection, schedule: Q01DX011 (ip), vehicle: carboxymethylcellulose (CMC)", "value": "79 % of control"}]}, {"smiles": "OCC1OC(n2cnc3c(I)ncnc32)C(O)C1O", "note": "(stereo not drawn)", "values": [{"measurement": "T/C", "setting": "dose: 30.0 mg/kg/injection, schedule: Q01DX011 (ip), vehicle: saline", "value": "73 % of control"}, {"measurement": "T/C", "setting": "dose: 60.0 mg/kg/injection, schedule: Q01DX011 (ip), vehicle: saline", "value": "73 % of control"}, {"measurement": "T/C", "setting": "dose: 120.0 mg/kg/injection, schedule: Q01DX011 (ip), vehicle: saline", "value": "49 % of control"}, {"measurement": "T/C", "setting": "dose: 240.0 mg/kg/injection, schedule: Q01DX011 (ip), vehicle: saline", "value": "29 % of control"}]}, {"smiles": "CC(CNC(=O)CCOS(C)(=O)=O)NC(=O)CCOS(C)(=O)=O", "note": "(stereo not drawn)", "values": [{"measurement": "T/C", "setting": "[1]", "value": "71 % of control"}, {"measurement": "T/C", "setting": "[2]", "value": "36 % of control and 60 % of control"}, {"measurement": "T/C", "setting": "[3]", "value": "2 % of control (2×) and 3 % of control"}, {"measurement": "T/C", "setting": "[4]", "value": "7 % of control"}]}, {"smiles": "NC(=S)N/N=C/c1cccnc1", "values": [{"measurement": "T/C", "setting": "dose: 1:1000.0 dilution, schedule: Q01DX006 (ip), vehicle: water", "value": "124 % of control"}, {"measurement": "T/C", "setting": "dose: 1:2000.0 dilution, schedule: Q01DX006 (ip), vehicle: water", "value": "110 % of control"}]}, {"smiles": "CCCn1cnc2c(=S)nc[nH]c21", "values": [{"measurement": "T/C", "setting": "dose: 0.25 mg/kg/injection, schedule: Q01DX011 (ip), vehicle: carboxymethylcellulose (CMC)", "value": "80 % of control"}, {"measurement": "T/C", "setting": "dose: 1.0 mg/kg/injection, schedule: Q01DX011 (ip), vehicle: carboxymethylcellulose (CMC)", "value": "53 % of control"}, {"measurement": "T/C", "setting": "dose: 3.0 mg/kg/injection, schedule: Q01DX011 (ip), vehicle: carboxymethylcellulose (CMC)", "value": "8 % of control and 11 % of control"}, {"measurement": "T/C", "setting": "dose: 4.0 mg/kg/injection, schedule: Q01DX011 (ip), vehicle: carboxymethylcellulose (CMC)", "value": "7 % of control"}, {"measurement": "T/C", "setting": "[5]", "value": "6 % of control"}, {"measurement": "T/C", "setting": "dose: 8.0 mg/kg/injection, schedule: Q01DX011 (ip), vehicle: carboxymethylcellulose (CMC)", "value": "10 % of control"}, {"measurement": "T/C", "setting": "[6]", "value": "5 % of control"}, {"measurement": "T/C", "setting": "[7]", "value": "4 % of control and 9 % of control"}, {"measurement": "T/C", "setting": "[8]", "value": "2 % of control"}, {"measurement": "T/C", "setting": "[9]", "value": "7 % of control"}, {"measurement": "T/C", "setting": "dose: 62.0 mg/kg/injection, schedule: Q01DX011 (ip), vehicle: carboxymethylcellulose (CMC)", "value": "6 % of control"}]}, {"smiles": "CC(CNC(=O)CCOS(C)(=O)=O)CNC(=O)CCOS(C)(=O)=O", "values": [{"measurement": "T/C", "setting": "[5]", "value": "120 % of control"}, {"measurement": "T/C", "setting": "[6]", "value": "92 % of control"}, {"measurement": "T/C", "setting": "[1]", "value": "73 % of control"}, {"measurement": "T/C", "setting": "[8]", "value": "111 % of control"}, {"measurement": "T/C", "setting": "[2]", "value": "108 % of control"}, {"measurement": "T/C", "setting": "[10]", "value": "39 % of control"}, {"measurement": "T/C", "setting": "dose: 57.0 mg/kg/injection, schedule: Q01DX011 (ip), vehicle: carboxymethylcellulose (CMC)", "value": "72 % of control"}, {"measurement": "T/C", "setting": "[11]", "value": "15 % of control"}, {"measurement": "T/C", "setting": "[3]", "value": "20 % of control and 36 % of control"}, {"measurement": "T/C", "setting": "[12]", "value": "2 % of control"}, {"measurement": "T/C", "setting": "[4]", "value": "4 % of control"}]}, {"smiles": "COC1CC(OS(C)(=O)=O)C(COS(C)(=O)=O)O1", "note": "(stereo not drawn)", "values": [{"measurement": "T/C", "setting": "[13]", "value": "120 % of control"}, {"measurement": "T/C", "setting": "dose: 75.0 mg/kg/injection, schedule: Q01DX011 (ip), vehicle: saline", "value": "117 % of control"}, {"measurement": "T/C", "setting": "dose: 225.0 mg/kg/injection, schedule: Q01DX011 (ip), vehicle: saline", "value": "104 % of control"}]}, {"smiles": "O=C(CCBr)NCCNC(=O)CCBr", "values": [{"measurement": "T/C", "setting": "dose: 50.0 mg/kg/injection, schedule: Q01DX011 (ip), vehicle: methylcellulose (MC)", "value": "15 % of control"}, {"measurement": "T/C", "setting": "dose: 100.0 mg/kg/injection, schedule: Q01DX011 (ip), vehicle: methylcellulose (MC)", "value": "3 % of control"}]}, {"smiles": "O=c1[nH]c(=O)c2[nH]c(N=Nc3ccc(N(CCCl)CCCl)cc3)nc2[nH]1", "values": [{"measurement": "T/C", "setting": "[13]", "value": "74 % of control"}, {"measurement": "T/C", "setting": "dose: 50.0 mg/kg/injection, schedule: Q01DX011 (ip), vehicle: saline", "value": "56 % of control"}, {"measurement": "T/C", "setting": "dose: 100.0 mg/kg/injection, schedule: Q01DX011 (ip), vehicle: saline", "value": "6 % of control and 19 % of control"}]}, {"smiles": "C[C@]12CCC(=O)C=C1CC[C@@H]1[C@@H]2[C@@H](O)C[C@@]2(C)[C@H]1CC[C@]2(O)C(=O)COC(=O)CCC(=O)O", "values": [{"measurement": "T/C", "setting": "dose: 700.0 mg/kg/injection, schedule: Q01DX011 (sc), vehicle: steriod suspending solution", "value": "10 % of control"}]}, {"smiles": "CC1CN1P(=S)(N1CCCCC1)N1CC1C", "note": "(stereo not drawn)", "values": [{"measurement": "T/C", "setting": "[8]", "value": "51 % of control"}, {"measurement": "T/C", "setting": "[10]", "value": "150 % of control"}, {"measurement": "T/C", "setting": "dose: 56.0 mg/kg/injection, schedule: Q01DX011 (ip), vehicle: carboxymethylcellulose (CMC)", "value": "64 % of control"}, {"measurement": "T/C", "setting": "[11]", "value": "121 % of control"}, {"measurement": "T/C", "setting": "dose: 112.0 mg/kg/injection, schedule: Q01DX011 (ip), vehicle: carboxymethylcellulose (CMC)", "value": "19 % of control"}, {"measurement": "T/C", "setting": "[12]", "value": "102 % of control"}]}, {"smiles": "O=C(CCBr)Nc1ccc(NC(=O)CCBr)cc1", "values": [{"measurement": "T/C", "setting": "dose: 56.0 mg/kg/injection, schedule: Q01DX011 (ip), vehicle: methylcellulose (MC)", "value": "113 % of control"}, {"measurement": "T/C", "setting": "dose: 113.0 mg/kg/injection, schedule: Q01DX011 (ip), vehicle: methylcellulose (MC)", "value": "108 % of control"}, {"measurement": "T/C", "setting": "dose: 225.0 mg/kg/injection, schedule: Q01DX011 (ip), vehicle: methylcellulose (MC)", "value": "100 % of control"}, {"measurement": "T/C", "setting": "dose: 450.0 mg/kg/injection, schedule: Q01DX011 (ip), vehicle: methylcellulose (MC)", "value": "117 % of control"}]}, {"smiles": "CCn1cnc2c(SC(C)C)ncnc21", "values": [{"measurement": "T/C", "setting": "[7]", "value": "42 % of control"}, {"measurement": "T/C", "setting": "[9]", "value": "4 % of control"}]}, {"smiles": "CN1CCN(CCCN2c3ccccc3Sc3ccc(C(F)(F)F)cc32)CC1", "values": [{"measurement": "T/C", "setting": "dose: 22.0 mg/kg/injection, schedule: Q01DX011 (ip), vehicle: saline", "value": "32 % of control"}]}, {"smiles": "N#[N+]c1n[nH]nc1C(N)=O", "values": [{"measurement": "T/C", "setting": "[5]", "value": "94 % of control"}, {"measurement": "T/C", "setting": "[6]", "value": "63 % of control"}]}]}
